The source of these data is US7009088B1, “Methods of modulating auxin production in plants” (priority 2000, dated 2006).

In data set [1] the target is T1, CYP83B1 (Arabidopsis thaliana, UniProt O65782).
T1 sequence (O65782 1-499): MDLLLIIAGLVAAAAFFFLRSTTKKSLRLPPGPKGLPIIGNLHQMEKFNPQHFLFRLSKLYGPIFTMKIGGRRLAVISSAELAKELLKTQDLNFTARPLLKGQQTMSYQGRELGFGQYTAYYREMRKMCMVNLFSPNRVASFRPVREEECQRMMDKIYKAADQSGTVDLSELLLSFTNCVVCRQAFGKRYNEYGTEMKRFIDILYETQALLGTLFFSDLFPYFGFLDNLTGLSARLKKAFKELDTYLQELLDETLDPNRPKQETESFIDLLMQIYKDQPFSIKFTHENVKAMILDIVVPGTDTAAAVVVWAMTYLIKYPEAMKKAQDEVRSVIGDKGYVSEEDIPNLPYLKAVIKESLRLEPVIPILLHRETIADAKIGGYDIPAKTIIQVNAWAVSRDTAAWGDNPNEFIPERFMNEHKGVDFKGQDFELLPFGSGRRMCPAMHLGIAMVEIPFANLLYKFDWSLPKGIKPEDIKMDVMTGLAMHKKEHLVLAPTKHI
In words: CYP83B1 catalysis of [5-3H]indole-3-acetaldoxime metabolism in yeast microsomes. Here is the method: (§1) FIG. 3. (A) Analysis of CYP83B1 by optical difference spectroscopy. […] After incubation for 10 min at 28° C. reaction mixtures were extracted with ethylacetate and analyzed by TLC. (s) substrate, (p) product.
After incubation, reaction mixtures were stopped by adding SDS to 0.4% and were analyzed by thin layer chromatography (TLC). TLC plates were developed in chloroform/methanol/water (85:14:1) and radioactive bands visualized by autoradiography.
Reactions were stopped and extracted with ethylacetate. Aliquots of the substrate-containing ethylacetate phase and product-containing water phase were subjected to liquid scintillation counting.

Data set [2] concerns wild type seedlings. Nature of the data set: Indole glucosinolate levels in seedlings grown on MS agar, quantified as SCN. In kind it is in vivo, Arabidopsis. To be noted: wild type seedlings germinated on MS media with 100 μM compound, two week old, versus wild type. Here is the method:
FIG. 6. Indole glucosinolate levels are affected by CYP83B1 expression. Indole glucosinolates in individual two week old seedlings grown on MS agar were quantified calorimetrically as SCN. 1) Wild type, 2) rnt1-1, 3) molecularly complemented line 3.25.11, 4) overexpression line 1.4.7, and 5) wild type grown on 100 μM tryptamine. Data are represented as the mean±S.E, (n=10 seedlings). Except for the molecularly complemented line 3.25.11, mean indole glucosinolate values all differ from wild type seedling values at a 1% confidence value (t-test).
Tryptophan-derived indole-3-acetaldoxime is also an intermediate in the biosynthesis of indole glucosinolates.

Data set [3] addresses T1, CYP83B1. Nature of the data set: Optical difference (binding) spectroscopy of yeast microsomes containing CYP83B1. Here is the method: as §1
The subject of data set [4] is Arabidopsis seedlings. Nature of the data set: Seedling growth on media supplemented with IAN (auxin phenotype). In kind it is in vivo. The text has this: Four nitrilases, differentially expressed during development and in response to environmental cues, catalyze hydrolysis of IAN to IAA in Arabidopsis (Bartel and Fink (1994) Proc. Natl. Acad. Sci. USA 91:6649–6653). The nitl mutant is insensitive to the auxin effects of exogenously applied […] at the seedling stage (Normanly et al. (1997) Plant Cell 9:1781–1790). In accordance with the observed insensitivity of nit1 seedlings to IAN, NIT1 is most strongly expressed in the hypocotyl near the junction with the root in young seedlings as well as in the cotyledons. In contrast, NIT2 and NIT3 are expressed primarily in the cotyledons and NIT4 is expressed in the root tip (Bartel and Fink (1994) Proc. Natl. Acad. Sci. USA 91:6649–6653).

In data set [5] the target is T2, NIT2 (Arabidopsis thaliana, UniProt P32962).
T2 sequence (P32962 1-339): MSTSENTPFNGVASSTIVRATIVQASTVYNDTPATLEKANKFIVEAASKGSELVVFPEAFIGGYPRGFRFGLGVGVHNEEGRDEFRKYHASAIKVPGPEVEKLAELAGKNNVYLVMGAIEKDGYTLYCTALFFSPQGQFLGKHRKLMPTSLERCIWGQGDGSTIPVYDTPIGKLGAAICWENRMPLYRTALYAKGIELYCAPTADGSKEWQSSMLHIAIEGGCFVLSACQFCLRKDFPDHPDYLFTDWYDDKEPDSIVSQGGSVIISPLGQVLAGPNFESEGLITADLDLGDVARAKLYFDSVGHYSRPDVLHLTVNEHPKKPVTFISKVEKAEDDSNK
To be noted: cited from earlier work.

In data set [6] the target is T3, NIT1 (Arabidopsis thaliana, UniProt P32961).
T3 sequence (P32961 1-346): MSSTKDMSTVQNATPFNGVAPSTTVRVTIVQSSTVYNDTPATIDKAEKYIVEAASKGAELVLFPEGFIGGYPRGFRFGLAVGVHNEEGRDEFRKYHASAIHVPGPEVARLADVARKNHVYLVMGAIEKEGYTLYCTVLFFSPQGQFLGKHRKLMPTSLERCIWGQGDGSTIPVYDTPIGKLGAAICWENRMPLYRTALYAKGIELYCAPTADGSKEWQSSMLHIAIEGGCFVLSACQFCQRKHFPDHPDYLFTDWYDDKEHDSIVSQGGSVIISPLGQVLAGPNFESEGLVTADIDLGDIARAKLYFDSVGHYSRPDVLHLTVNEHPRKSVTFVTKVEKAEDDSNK
To be noted: cited from earlier work.

By Kd is commonly meant the constant that tells how readily two partners part at equilibrium. High values mean lower affinity, low ones higher affinity. By Km is commonly meant the concentration of substrate that gives half-maximal velocity.

Structures are written as SMILES.

As to `NCCc1c[nH]c2ccccc12` [tryptamine], in data set [1] (17.5 mM tryptamine, 35 μM [5-3H]indole-3-acetaldoxime, 22 nM CYP83B1, 10 min at 28° C., TLC), the “inhibition of indole-3-acetaldoxime oxidation” value is “inhibitor”. In addition, the indole glucosinolate levels result in data set [2] is “reduced levels”. This compound also registered a dissociation constant (Kd) in data set [3] of 24 µM.

Turning to `ON=CCc1c[nH]c2ccccc12` [indole-3-acetaldoxime], in data set [1] (in the presence of cysteine, 2.2 nM CYP83B1, 1 min at 28° C.), the turnover was found to be 53 min⁻¹. Moreover, the Michaelis-Menten constant (Km) in data set [1] (read-out: Michaelis-Menten constant Km, in the presence of cysteine, 2.2 nM CYP83B1, 1 min at 28° C.) is 3 µM. In data set [3], this compound had a dissociation constant Kd of 0.2 µM.

As to `N#CCc1c[nH]c2ccccc12` [IAN, indole-3-acetonitrile], the “effect on germination / IAA phenotype” value in data set [4] (rnt1-1 seedlings on 50 μM) is recorded as “almost completely inhibiting germination”. Besides, the seedling phenotype entry in data set [4] (wild type seedlings on media supplemented with 50 μM) was “phenocopy rnt1-1 seedlings”. The “Km for IAN hydrolysis” value in data set [5] and in data set [6] was “in the mM range” throughout.
